Laboratory results reported in patent publication US7238374B2, “Process and substances for the release of a growth-regulating factor from endothelial cells” (priority 1998, dated 2007).

Legend:
[1] = Partition between octanol and aqueous phosphate buffer pH 7; type: physicochemical
Method: Cells in a culture medium can be viewed as a two-phase system consisting of water and lipids. The distribution of the alkaloids in cell cultures and in mixtures of octanol and water was studied. […] The alkaloids were partitioned between equal volumes of octanol and aqueous phosphate buffer pH 7 (0.01 M) at 20° C. The concentrations c of the alkaloids were determined by HPLC analysis and the coefficients of distribution [formula] were calculated.

[2] = Equilibria of isomers in an octanol-water two-phase system; type: physicochemical; conditions: octanol-water system (1:1) with mitraphylline and isomitraphylline, approximately pH 5
Text: As expected the equilibrium of isomers in a two-phase system (1aq ? 1org, 2aq ? 2org, FIG. 3) depends not only on the pH value of the aqueous phase but also on the amount and nature of the organic phase, For an example, the equilibria of mitraphylline and isomitraphylline in an octanol-water system (1:1) at pH values from 3 to 7 are shown (FIG. 4). It can be seen that in the pH range from 4 to 7 isomitraphylline is predominant in the octanol phase, with a maximum of 94 mol-% at approximately pH 5. However, below pH 3 mitraphylline begins to prevail in the aqueous phase. At no pH value is isomitraphylline produced in the aqueous phase to a reasonable extent. Therefore, the distribution of the isomers in a 2-phase system is clearly different compared to the situation in a purely aqueous solution.

[3] = stimulant IMM-2418 (1.1 μM)
Method: A RPMI-1640 culture medium (Sigma-Aldrich Company, St. Louis, USA) completed with 10% by volume fetal calf serum, 2 mM glutamin, 50 units/ml penicillin G, and 50 μg/ml streptomycin was used.

[4] = octanol / aqueous phosphate buffer pH 7 (0.01 M), equal volumes, 20° C.

| SMILES | log KO/W (common logarithm of the partition coefficient) ([1]; pH 7) | log KO/W (common logarithm of the partition coefficient) [1, 4] | further results |
| --- | --- | --- | --- |
| COC(=O)C1=CO[C@@H](C)[C@H]2CN3CC[C@@]4(C(=O)Nc5ccccc54)[C@@H]3C[C@H]12 [Isomitraphylline] | 2.8 | – | equilibrium concentration in the octanol phase, maximum [2]: 94 mol-% |
| COC(=O)C1=CO[C@@H](C)[C@@H]2CN3CC[C@@]4(C(=O)Nc5ccccc54)[C@@H]3C[C@H]12 [Isopteropodine] | 3.2 | – | – |
| CC[C@H]1CN2CC[C@@]3(C(=O)Nc4ccccc43)[C@@H]2C[C@@H]1/C(=C\OC)C(=O)OC [Isorhynchophylline] | – | 3.1 | alkaloid concentration in RPMI-1640 nutrient medium, 7 Days [3]: 0.27 mg/L; alkaloid concentration in RPMI-1640 nutrient medium, Start [3]: 0.27 mg/L |
| COC(=O)C1=CO[C@@H](C)[C@H]2CN3CC[C@]4(C(=O)Nc5ccccc54)[C@@H]3C[C@H]12 [Mitraphylline] | 2.5 | – | – |
| COC(=O)C1=CO[C@@H](C)[C@@H]2CN3CC[C@]4(C(=O)Nc5ccccc54)[C@@H]3C[C@H]12 [Pteropodine] | 2.9 | – | – |
| CC[C@H]1CN2CC[C@]3(C(=O)Nc4ccccc43)[C@@H]2C[C@@H]1/C(=C\OC)C(=O)OC [Rhynchophylline] | – | 2.7 | alkaloid concentration in RPMI-1640 nutrient medium, 7 Days [3]: 0.13 mg/L; alkaloid concentration in RPMI-1640 nutrient medium, Start [3]: 0.15 mg/L |
| COC(=O)C1=CO[C@@H](C)[C@@H]2CN3CC[C@@]4(C(=O)Nc5ccccc54)[C@H]3C[C@H]12 [Speciophylline] | 1.4 | – | – |
| COC(=O)C1=CO[C@@H](C)[C@@H]2CN3CC[C@]4(C(=O)Nc5ccccc54)[C@H]3C[C@H]12 [Uncarine F] | – | 3.1 | – |
